Test results taken from the OPERA property sets (Mansouri et al. 2018).

| SMILES | logP |
| --- | --- |
| O=C(OCC1OC(n2cc(I)c(=O)[nH]c2=O)CC1O)c1ccc([N+](=O)[O-])cc1 (stereo not drawn) | 1.24 |
| CCOc1ccc(OCC(OC(=S)n2ccnc2)C(C)(C)C)cc1 (stereo not drawn) | 4.58 |
| Cn1cnc([N+](=O)[O-])c1Cl | 1.06 |
| CC(=O)CC(c1ccc([N+](=O)[O-])cc1)c1c(O)c2ccccc2oc1=O (stereo not drawn) | 1.98 |
| CC(C)(C)OC(=O)C(C(=O)OC(C)(C)C)=C1SCCS1 | 4.01 |
| O=C(O)c1cc(O)nc(O)n1 | -0.83 |
| CCCn1ccc(=O)c(O)c1CC | 0.7 |
| CN1CC(C)(C)C(=O)c2ccccc21 | 2.72 |
| CCCN(C)C(=O)c1cccc(Oc2ccccc2)c1 | 3.44 |
| O=C(CCN1CCCCC1)CN1C(=O)CC(c2ccc(Cl)cc2)C1=O (stereo not drawn) | 2.23 |
| CCN(CC)CCC(=O)c1sc(N)nc1C | 1.76 |
| FC(F)(F)c1nc2c(Cl)c(Cl)c(Cl)cc2[nH]1 | 3.87 |
| COc1ncnc2c1ncn2C1OC(CO)C(OC(=O)C(C)(C)C)C1OC(=O)C(C)(C)C (stereo not drawn) | 3.61 |
| Cc1cccc(C(N)=O)c1O | 2.12 |
| COc1ccc2c(=O)c(C)c(-c3ccccc3)oc2c1CN(C)C | 3.65 |
| CC(=O)c1ccc2cc(C(C)C(=O)OCC(N)=O)ccc2c1 (stereo not drawn) | 2.06 |
| CCCCCn1ccc(=O)c(O)c1C | 1.24 |
| NS(=O)(=O)c1cc2c(cc1F)N=CNS2(=O)=O | -0.29 |
| NC(=O)Cc1ccc(C(=O)O)cc1 | 0.3 |
| CC(C)(C)C(COc1ccc(Cl)cc1)OC(=S)n1ccnc1 (stereo not drawn) | 4.96 |
| CC1c2nc3ccccc3c(=O)n2CN1c1ccccc1 (stereo not drawn) | 1.79 |
| Cc1cc2n(c1C(=O)c1ccc(Cl)cc1)CCC2C(=O)O (stereo not drawn) | 3.6 |
| COCN(C#N)C1CC(OC2CC(O)(C(C)=O)Cc3c(O)c4c(c(O)c32)C(=O)c2c(OC)cccc2C4=O)OC(C)C1O (stereo not drawn) | 2.64 |

| SMILES | logP |
| --- | --- |
| CCC(=O)OCOC(=O)c1cn(CC)c2nc(C)ccc2c1=O | 1.7 |
| Nc1cc(Cl)ccc1Cl | 2.75 |
| NS(=O)(=O)c1ccc(Cl)c([N+](=O)[O-])c1 | 0.66 |
| CN(Cc1ccccc1)C(=O)C(Cc1ccccc1)NC(=O)C(Cc1cn(C(=O)OC(C)(C)C)c2ccccc12)NC(=O)CC1NC(=O)C2C3CCC(CC3)N2C1=O (stereo not drawn) | 5.33 |
| CCc1c(C)nc2cccc(C)n2c1=O | 1.86 |
| Cc1cc(N)ccc1C(=O)O | 1.14 |
| CCCc1ccc(OCC(OC(=O)n2ccnc2)C(C)(C)C)cc1 (stereo not drawn) | 4.73 |
| OCC1OC(O)C(O)C(O)C1O (stereo not drawn) | -3.24 |
| CC(CCC(=O)NCc1ccccc1)C1CCC2C3C(O)CC4CC(O)CCC4(C)C3CC(O)C12C (stereo not drawn) | 3.54 |
| CCCCCCCC(=O)n1cc(CC(NC(=O)CC2NC(=O)C3C4CCC(CC4)N3C2=O)C(=O)NC(Cc2ccccc2)C(=O)N(C)Cc2ccccc2)c2ccccc21 (stereo not drawn) | 7.29 |
| CC1CCC=C2N(C)C=C(C(N)=O)C(=O)N21 (stereo not drawn) | 0.12 |
| CC1(C)S[C@@H]2[C@H](NC(=O)[C@H](N)c3ccccc3)C(=O)N2[C@H]1C(=O)O | 1.35 |
| CCCCCCCOC(=O)c1cc(=O)[nH]c(=O)[nH]1 | 2.15 |
| CCOP(=O)(OCC)SCS(=O)C(C)(C)C (stereo not drawn) | 2.66 |
| O=C1CC2(CCCC2)C(=O)N1OCc1ccccc1 | 2.3 |
| CCc1nc(S(=O)(=O)Nc2c(F)cccc2F)nn1-c1ccccc1 | 3.7 |
| CNC12CCCCC1CSc1ccccc12 (stereo not drawn) | 3.88 |
| C[C@]12CCC(=O)C=C1CC[C@@H]1[C@@H]2CC[C@@]2(C)[C@H]1CC[C@]2(O)C(=O)CO | 3.08 |
| CNC(=O)c1cccc(Oc2cc(C)ccc2C)c1 | 3.76 |
| O=C(O)CCCCCOc1cccc2ccccc12 | 4.5 |
| CCON1C(=O)CC2(CCCC2)C1=O | 1.26 |
| NCC(O)c1ccc(O)cc1 (stereo not drawn) | -0.9 |
| Nc1nc(=O)n(C2OC(CO)CC2F)cc1Cl (stereo not drawn) | -0.46 |

| SMILES | logP |
| --- | --- |
| Clc1cccc2cccc(Cl)c12 | 4.3 |
| Cc1ccc(C)c(C(=O)NS(=O)(=O)c2ccc(N)cc2)c1 | 2.19 |
| Cc1onc(-c2ccccc2Cl)c1C(=O)NC1C(=O)N2C1S(=O)C(C)(C)C2C(=O)O (stereo not drawn) | 2 |
| Nc1ccc(C(F)(F)F)cc1 | 1.95 |
| CN1CC(=O)N(c2ccccc2)C1=O | 0.14 |
| CNC(=O)N(C)c1nnc(C(F)(F)F)s1 | 1.85 |
| Cc1ccc(Nc2c([N+](=O)[O-])c(C)nn2-c2ccccc2)cc1 | 3.43 |
| O=c1[nH]c2cc(Cl)ccc2n1C1CCN(CCCC(c2ccc(F)cc2)c2ccc(F)cc2)CC1 | 7.1 |
| CC(C)NC(=N)NC(=N)Nc1ccc(Cl)cc1 | 2.53 |
| COC(=O)NC1=NCC(c2cccc(Cl)c2)N1C (stereo not drawn) | 2.1 |
| Cc1cc(C)c(C)c(C)c1 | 4.1 |
| COc1ccc(COCc2cccc(CN3CCOCC3)c2)cc1 | 2.83 |
| COC(=O)c1cnc2n(c1=O)C(C)CCC2 (stereo not drawn) | 0.16 |
| COc1ccc(C(O)C(=O)O)cc1 (stereo not drawn) | 0.63 |
| CNc1nnc(-c2cc(Cl)cc(Cl)c2)c(=O)n1N | 1.91 |
| CCCCCCC(=O)N(C)c1ccc(S(=O)(=O)N(C)C)cc1 | 2.61 |
| Cn1c(S)nnc(-c2ccc(F)cc2)c1=O | 2.38 |
| NS(=O)(=O)c1cc2c(cc1Cl)NC(C(F)(F)F)NS2(=O)=O (stereo not drawn) | 0.49 |
| CCOP(=O)(OCC)Oc1ccc([N+](=O)[O-])cc1 | 1.98 |
| COc1ccc(-c2nc3ncc(N)cc3[nH]2)c(OC)c1 | 1.62 |
| S=C=Nc1cccc(Cl)c1 | 3.36 |
| CSc1ccc(OCc2ncc([N+](=O)[O-])n2C)cc1 | 2.5 |
| O=c1[nH]c(=O)n(-c2ccc(Cl)cc2Cl)cc1F | 1.96 |

| SMILES | logP |
| --- | --- |
| Cc1cccc2nc3n(c(=O)c12)CCC3 | 1.59 |
| O=c1[nH]c(=O)n(Cc2ccc(Cl)cc2)cc1F | 1.64 |
| CCCCC(=O)OC1C(CO)OC(n2cnc3c(OC)ncnc32)C1OC(=O)CCCC (stereo not drawn) | 3.83 |
| COC(=O)c1c(C)[nH]c(-c2cc(Cl)ccn2)c1C(=O)OC | 2.63 |
| CCOC(=O)c1cnc2n(c1=O)CCCC2 | 0.15 |
| Cc1ccc2nccc(=O)n2c1 | 0.61 |
| O=C(O)Cc1ccc(C2CCCCC2)cc1 | 3.91 |
| COC1CC(OC2CCC3(C)C2CCC2C3CCC3(C)C(C4=CC(=O)OC4)CCC23O)OC(C)C1O (stereo not drawn) | 2.37 |
| CCCCC(=O)CC(=O)CCCC | 3.56 |
| CCCCCCC(=O)O | 2.42 |
| COC(=O)c1c(C)[nH]c(-c2ccc(Cl)cn2)c1C(=O)OC | 2.7 |
| Cc1ccc2c(c1)C1CN(C)CCC1N2C(=O)C=Cc1ccccc1 (stereo not drawn) | 3.49 |
| COC(=O)Nc1nc2cc(C(=O)c3ccccc3)ccc2[nH]1 | 2.83 |
| CCCCCO | 1.51 |
| CNC(=O)NC(=O)C(C)(C(=O)OC)C1C=CCCC1 (stereo not drawn) | 1.75 |
| CC(=O)Nc1ccc2c(c1)S(=O)(=O)c1ccc(C)cc1C2=O | 2.76 |
| CCCCCCCCCCCCOC(=O)N(C)SN(C)C(=O)Oc1ccc2c(c1)OCO2 | 7.39 |
| CCOC(=O)C=C1NC(=O)C(N2CCCCC2)S1 (stereo not drawn) | 2.34 |
| CCC1(c2ccccc2)C(=O)NC(=O)N1S(=O)(=O)c1ccccc1 (stereo not drawn) | 2.44 |
| Nc1ccc(Cl)c(Cl)c1Cl | 3.33 |
| Nc1ccc(Cl)cc1Cl | 2.78 |
| Cc1c(O)c(=O)ccn1CCC(=O)NC(C)C | -0.47 |
| CCNC(=O)[C@@H](NC(=O)CNC(=O)c1ccccc1)C(C)C | 1.05 |

| SMILES | logP |
| --- | --- |
| COC(=O)C1=C(C)NC(C)=C(C(=O)OC(C)C)C1c1cccc2nonc12 (stereo not drawn) | 4.28 |
| COC(=O)NC1=NCC(c2cccc(Br)c2)N1 (stereo not drawn) | 2.09 |
| CCCOc1ccc(OCC(OC(=S)n2ccnc2)C(C)(C)C)cc1 (stereo not drawn) | 5.03 |
| CCc1nc2cccc(C)n2c(=O)c1C | 1.87 |
| CCCCn1ccc(=O)c(O)c1C | 0.7 |
| O=C(O)Cc1ccc(O)c(O)c1 | 0.98 |
| CC(C)CC1NC(=O)NC1=O (stereo not drawn) | 0.35 |
| O=C(Cc1nc(I)c([N+](=O)[O-])[nH]1)NCc1cccnc1 | 0.88 |
| COc1cccc(C(=O)NC2CCN(Cc3ccc(F)cc3)CC2)c1OC | 2.87 |
| CCC(=O)n1c(=O)[nH]cc(F)c1=O | 0.19 |
| CN(C)CC/C=C1\c2ccccc2COc2ccccc21 | 4.29 |
| CN1C(=O)NC(c2ccccc2)(c2ccccc2)C1=O | 2.28 |
| CCOP(=O)(O)Cc1ccc(F)cc1 | 1.25 |
| CCCC(CC)C(=O)O (stereo not drawn) | 2.23 |
| CCCC(=NOCC)C1C(=O)CC2(CCSCC2)OC1=O (stereo not drawn) | 2.9 |
| NC(=O)NCCCCn1nc(-c2ccccc2)ccc1=O | 1.21 |
| CC(=O)O.CCCCCCCCCCCCNC(=N)N | 1.15 |
| CC(=O)NCc1ccc(OCC(O)CNC(C)C)cc1 (stereo not drawn) | 0.32 |
| CCN1C(=O)NC(Cc2ccccc2)C1=O (stereo not drawn) | 1.61 |
| CCC1(CC)C(=O)NCC(C)C1=O (stereo not drawn) | 0.78 |
| Nc1ccn(C2OC(CO)CC2F)c(=O)n1 (stereo not drawn) | -1.18 |
| CN(C)CCN(Cc1cccs1)c1ccccn1 | 2.87 |
| ClC(Br)Br | 2.16 |

| SMILES | logP |
| --- | --- |
| Clc1ccc(-c2ccc(Cl)c(Cl)c2Cl)cc1Cl | 6.79 |
| CCOc1cccc(-c2nnc(S)n(C)c2=O)c1 | 2.67 |
| O=C1CN=C(c2ccccc2)c2cc(Cl)ccc2N1CC(F)(F)F | 3.97 |
| N#CCCO | -0.94 |
| CC(C)c1ccc(N)cc1 | 2.49 |
| Cc1cc(O)ccc1O | 0.91 |
| CCCC1=Nc2cc(Cl)c(S(N)(=O)=O)cc2S(=O)(=O)N1 | 1.21 |
| Cc1ncc([N+](=O)[O-])n1CCOC(N)=O | -0.29 |
| NC12CCCCC1c1ccccc1C2 (stereo not drawn) | 2.94 |
| O=C(c1c(F)c(F)c(F)c(F)c1F)c1ccc2n1CCC2C(=O)O (stereo not drawn) | 3.24 |
| CCc1cc2n(c1C(=O)c1ccc(F)cc1)CCC2C(=O)O (stereo not drawn) | 3.63 |
| CC1=NS(=O)(=O)c2cc(S(N)(=O)=O)c(Cl)cc2N1 | 0.03 |
| CCc1c(C)nc2n(c1=O)C(C)CCC2 (stereo not drawn) | 1.43 |
| CNC(=O)Oc1cc(C)ccc1C(C)C | 2.84 |
| Cc1nn(-c2ccccc2)c(Nc2ccc(C(F)(F)F)cc2)c1[N+](=O)[O-] | 3.89 |
| Cc1cc(O)c(N(C)C)nn1 | 0.24 |
| CCC(C)(C)c1ccc(CC(=O)O)cc1 | 3.48 |
| C[C@H](CN1CCOCC1)C(C(=O)N1CCCC1)(c1ccccc1)c1ccccc1 | 3.61 |
| CC(C)C1NC(=O)NC1=O (stereo not drawn) | -0.36 |
| COc1cc(C(N)=O)ccc1-c1nc2ccncc2[nH]1 | 1.18 |
| N#Cc1ccccn1 | 0.45 |
| OC(Cn1ccnc1)(c1ccc(F)cc1)c1ccc(F)cc1 | 2.95 |
| CNC(=S)NCC#CCC(NC(=O)C(Cc1ccc2ccccc2c1)Cc1cccc2ccccc12)C(=O)NC(CC1CCCCC1)C(O)CC(=O)NCCN1CCOCC1 (stereo not drawn) | 5.46 |
